In ChEMBL document CHEMBL4507300 (2021):

How the values were obtained:
Details in all cases: Compound concentration 1000.0 nM
[1] = target: Phosphatidylinositol 4,5-bisphosphate 3-kinase catalytic subunit beta isoform (Homo sapiens) (UniProt P42338)
[2] = target: Tyrosine-protein kinase Mer (Homo sapiens) (UniProt Q12866)
[3] = target: Serine/threonine-protein kinase Chk2 (Homo sapiens) (UniProt O96017)
[4] = target: Activin receptor type-1B (Homo sapiens) (UniProt P36896)
[5] = target: Serine/threonine-protein kinase Chk1 (Homo sapiens) (UniProt O14757)
[6] = target: Tyrosine-protein kinase ABL1 (Homo sapiens) (UniProt P00519)
[7] = target: Proto-oncogene tyrosine-protein kinase receptor Ret (Homo sapiens) (UniProt P07949)
[8] = tested on: Tyrosine-protein kinase ABL1 (Homo sapiens), P00519 [F317I]
[9] = target: Mitogen-activated protein kinase kinase kinase 1 (Homo sapiens) (UniProt Q13233)
[10] = target: Platelet-derived growth factor receptor alpha (Homo sapiens) (UniProt P16234)
[11] = target: Interleukin-1 receptor-associated kinase 3 (Homo sapiens) (UniProt Q9Y616)
[12] = target: Vascular endothelial growth factor receptor 2 (Homo sapiens) (UniProt P35968)
[13] = tested on: Epidermal growth factor receptor (Homo sapiens), P00533 [UNDEFINED MUTATION]
[14] = target: Death-associated protein kinase 3 (Homo sapiens) (UniProt O43293)
[15] = target: Serine/threonine-protein kinase TBK1 (Homo sapiens) (UniProt Q9UHD2)
[16] = target: Wee1-like protein kinase 2 (Homo sapiens) (UniProt P0C1S8)
[17] = target: cAMP-dependent protein kinase catalytic subunit alpha (Homo sapiens) (UniProt P17612)
[18] = target: Ribosomal protein S6 kinase alpha-5 (Homo sapiens) (UniProt O75582)
[19] = target: Cyclin-dependent kinase 14 (Homo sapiens) (UniProt O94921)
[20] = target: Rhodopsin kinase GRK1 (Homo sapiens) (UniProt Q15835)
Chain of Rhodopsin kinase GRK1 (Homo sapiens) (Q15835 whole entry): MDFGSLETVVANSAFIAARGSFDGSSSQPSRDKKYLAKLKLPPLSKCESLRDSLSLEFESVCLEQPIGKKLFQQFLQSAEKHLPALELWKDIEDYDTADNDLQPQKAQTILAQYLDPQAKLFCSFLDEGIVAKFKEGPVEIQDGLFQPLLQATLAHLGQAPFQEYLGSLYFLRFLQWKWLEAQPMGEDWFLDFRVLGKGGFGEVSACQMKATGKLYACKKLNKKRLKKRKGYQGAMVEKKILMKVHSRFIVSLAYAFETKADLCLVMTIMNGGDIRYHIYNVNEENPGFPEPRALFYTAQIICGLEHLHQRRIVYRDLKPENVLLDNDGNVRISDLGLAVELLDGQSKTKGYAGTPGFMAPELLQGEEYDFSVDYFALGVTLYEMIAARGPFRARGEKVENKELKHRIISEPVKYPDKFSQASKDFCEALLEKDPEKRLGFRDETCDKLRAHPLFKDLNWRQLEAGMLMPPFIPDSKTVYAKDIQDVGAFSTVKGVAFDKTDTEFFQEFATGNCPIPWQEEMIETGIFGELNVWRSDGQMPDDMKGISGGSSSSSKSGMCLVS

[21] = target: Dual specificity mitogen-activated protein kinase kinase 7 (Homo sapiens) (UniProt O14733)
Chain of Dual specificity mitogen-activated protein kinase kinase 7 (Homo sapiens) (O14733 whole entry): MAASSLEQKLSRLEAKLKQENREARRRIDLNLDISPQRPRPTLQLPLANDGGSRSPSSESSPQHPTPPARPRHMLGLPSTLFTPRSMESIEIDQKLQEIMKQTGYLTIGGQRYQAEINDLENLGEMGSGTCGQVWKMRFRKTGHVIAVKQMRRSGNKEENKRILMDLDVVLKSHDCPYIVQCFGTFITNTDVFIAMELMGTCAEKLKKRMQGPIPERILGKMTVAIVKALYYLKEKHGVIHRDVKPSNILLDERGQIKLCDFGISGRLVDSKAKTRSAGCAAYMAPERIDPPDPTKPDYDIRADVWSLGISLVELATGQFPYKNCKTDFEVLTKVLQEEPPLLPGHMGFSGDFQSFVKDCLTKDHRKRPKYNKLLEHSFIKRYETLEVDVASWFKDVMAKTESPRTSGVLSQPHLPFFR

[22] = target: Wee1-like protein kinase (Homo sapiens) (UniProt P30291)
Chain of Wee1-like protein kinase (Homo sapiens) (P30291 whole entry, looked up): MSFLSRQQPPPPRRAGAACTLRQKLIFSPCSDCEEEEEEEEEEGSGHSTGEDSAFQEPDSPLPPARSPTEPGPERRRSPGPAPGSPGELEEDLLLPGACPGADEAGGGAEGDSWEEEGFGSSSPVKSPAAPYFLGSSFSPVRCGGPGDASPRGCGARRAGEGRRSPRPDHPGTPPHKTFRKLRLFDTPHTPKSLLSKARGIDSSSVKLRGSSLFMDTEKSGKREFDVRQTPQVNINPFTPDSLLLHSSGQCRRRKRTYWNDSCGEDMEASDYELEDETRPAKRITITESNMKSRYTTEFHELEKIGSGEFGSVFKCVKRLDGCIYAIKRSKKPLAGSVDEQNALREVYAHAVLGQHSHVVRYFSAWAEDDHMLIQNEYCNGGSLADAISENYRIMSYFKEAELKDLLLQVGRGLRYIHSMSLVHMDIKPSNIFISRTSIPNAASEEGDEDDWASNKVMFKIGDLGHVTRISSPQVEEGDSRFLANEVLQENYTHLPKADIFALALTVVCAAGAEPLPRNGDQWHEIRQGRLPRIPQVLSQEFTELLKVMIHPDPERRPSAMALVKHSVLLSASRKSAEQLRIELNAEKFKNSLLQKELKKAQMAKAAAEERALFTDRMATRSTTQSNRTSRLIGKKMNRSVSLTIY

[23] = target: SNF-related serine/threonine-protein kinase (Homo sapiens) (UniProt Q9NRH2)
[24] = target: Ephrin type-A receptor 4 (Homo sapiens) (UniProt P54764)
[25] = target: Mitogen-activated protein kinase 3 (Homo sapiens) (UniProt P27361)
[26] = target: TRAF2 and NCK-interacting protein kinase (Homo sapiens) (UniProt Q9UKE5)
[27] = tested on: Proto-oncogene tyrosine-protein kinase receptor Ret (Homo sapiens), P07949 [V804L]
[28] = target: Serine/threonine-protein kinase PRP4 homolog (Homo sapiens) (UniProt Q13523)
Chain of Serine/threonine-protein kinase PRP4 homolog (Homo sapiens) (Q13523 whole entry): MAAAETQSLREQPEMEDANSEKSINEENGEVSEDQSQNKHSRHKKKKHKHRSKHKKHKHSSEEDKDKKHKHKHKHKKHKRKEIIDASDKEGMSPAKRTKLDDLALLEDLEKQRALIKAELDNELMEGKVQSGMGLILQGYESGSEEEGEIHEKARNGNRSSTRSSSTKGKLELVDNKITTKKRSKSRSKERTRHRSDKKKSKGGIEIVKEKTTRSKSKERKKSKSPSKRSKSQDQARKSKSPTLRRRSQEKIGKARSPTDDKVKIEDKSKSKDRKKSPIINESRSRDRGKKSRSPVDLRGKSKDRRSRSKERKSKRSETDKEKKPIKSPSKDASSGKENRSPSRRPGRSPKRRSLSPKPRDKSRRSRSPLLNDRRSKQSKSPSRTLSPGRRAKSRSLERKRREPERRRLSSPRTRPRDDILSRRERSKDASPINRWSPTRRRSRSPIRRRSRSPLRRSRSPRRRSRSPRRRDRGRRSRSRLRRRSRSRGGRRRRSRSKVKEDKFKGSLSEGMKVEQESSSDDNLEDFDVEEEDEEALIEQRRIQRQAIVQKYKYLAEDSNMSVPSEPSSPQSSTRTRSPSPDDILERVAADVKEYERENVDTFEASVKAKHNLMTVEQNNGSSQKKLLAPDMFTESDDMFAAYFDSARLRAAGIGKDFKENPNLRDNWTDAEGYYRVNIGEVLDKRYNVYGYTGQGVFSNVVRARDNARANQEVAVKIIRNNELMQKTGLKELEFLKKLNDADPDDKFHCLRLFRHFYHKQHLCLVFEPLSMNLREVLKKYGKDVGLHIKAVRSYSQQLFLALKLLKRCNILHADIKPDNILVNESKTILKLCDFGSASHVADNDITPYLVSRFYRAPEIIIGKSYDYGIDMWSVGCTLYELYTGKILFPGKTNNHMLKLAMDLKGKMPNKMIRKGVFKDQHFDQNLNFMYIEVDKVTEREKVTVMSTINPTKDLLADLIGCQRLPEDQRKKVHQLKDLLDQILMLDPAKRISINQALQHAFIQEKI

[29] = target: Serine/threonine-protein kinase MAK (Homo sapiens) (UniProt P20794)
[30] = target: cGMP-dependent protein kinase 2 (Homo sapiens) (UniProt Q13237)
[31] = target: Bone morphogenetic protein receptor type-1A (Homo sapiens) (UniProt P36894)
[32] = target: Serine/threonine-protein kinase MARK1 (Homo sapiens) (UniProt Q9P0L2)
[33] = target: Mast/stem cell growth factor receptor Kit (Homo sapiens) (UniProt P10721)
[34] = target: Ribosomal protein S6 kinase beta-1 (Homo sapiens) (UniProt P23443)
[35] = target: Serine/threonine-protein kinase 4 (Homo sapiens) (UniProt Q13043)
[36] = target: Serine/threonine-protein kinase SIK2 (Homo sapiens) (UniProt Q9H0K1)
[37] = tested on: Epidermal growth factor receptor (Homo sapiens), P00533 [G719C]
[38] = tested on: Epidermal growth factor receptor (Homo sapiens), P00533 [UNDEFINED MUTATION]; remark: listed apart in the source
[39] = target: STE20-like serine/threonine-protein kinase (Homo sapiens) (UniProt Q9H2G2)
[40] = target: Serine/threonine-protein kinase TAO3 (Homo sapiens) (UniProt Q9H2K8)
[41] = tested on: ALK tyrosine kinase receptor (Homo sapiens), Q9UM73 [C1156Y]
[42] = target: Serine/threonine-protein kinase D2 (Homo sapiens) (UniProt Q9BZL6)
[43] = target: Beta-adrenergic receptor kinase 1 (Homo sapiens) (UniProt P25098)
[44] = target: Ephrin type-B receptor 2 (Homo sapiens) (UniProt P29323)
[45] = target: Insulin receptor (Homo sapiens) (UniProt P06213)

Measured: residual activity

Chain of Phosphatidylinositol 4,5-bisphosphate 3-kinase catalytic subunit beta isoform (Homo sapiens) (P42338 whole entry, looked up, canonical isoform): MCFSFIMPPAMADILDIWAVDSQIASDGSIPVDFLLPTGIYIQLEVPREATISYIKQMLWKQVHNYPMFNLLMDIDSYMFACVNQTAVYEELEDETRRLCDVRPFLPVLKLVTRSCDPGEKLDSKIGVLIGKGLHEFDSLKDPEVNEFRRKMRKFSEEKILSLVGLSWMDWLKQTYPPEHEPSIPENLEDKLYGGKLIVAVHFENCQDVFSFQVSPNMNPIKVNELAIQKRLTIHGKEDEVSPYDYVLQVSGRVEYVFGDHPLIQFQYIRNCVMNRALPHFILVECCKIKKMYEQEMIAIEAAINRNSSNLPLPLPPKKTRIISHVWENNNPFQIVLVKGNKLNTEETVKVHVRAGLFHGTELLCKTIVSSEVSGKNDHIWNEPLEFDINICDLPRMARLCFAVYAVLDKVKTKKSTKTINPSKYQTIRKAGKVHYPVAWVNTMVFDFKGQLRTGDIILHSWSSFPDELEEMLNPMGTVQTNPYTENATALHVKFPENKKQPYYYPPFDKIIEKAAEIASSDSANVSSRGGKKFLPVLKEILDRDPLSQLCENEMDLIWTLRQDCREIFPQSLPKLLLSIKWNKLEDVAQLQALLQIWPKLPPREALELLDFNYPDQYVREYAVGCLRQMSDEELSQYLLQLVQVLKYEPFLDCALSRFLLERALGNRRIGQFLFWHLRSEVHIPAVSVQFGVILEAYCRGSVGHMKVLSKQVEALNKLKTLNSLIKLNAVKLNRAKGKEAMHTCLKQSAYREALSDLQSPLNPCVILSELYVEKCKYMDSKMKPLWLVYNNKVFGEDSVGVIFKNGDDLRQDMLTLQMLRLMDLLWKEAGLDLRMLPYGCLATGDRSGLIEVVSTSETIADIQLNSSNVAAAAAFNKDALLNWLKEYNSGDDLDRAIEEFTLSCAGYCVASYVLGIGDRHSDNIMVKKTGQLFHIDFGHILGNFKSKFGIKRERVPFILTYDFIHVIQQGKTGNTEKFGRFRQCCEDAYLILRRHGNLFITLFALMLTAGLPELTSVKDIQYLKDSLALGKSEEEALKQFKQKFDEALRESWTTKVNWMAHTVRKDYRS
Chain of Tyrosine-protein kinase Mer (Homo sapiens) (Q12866 whole entry): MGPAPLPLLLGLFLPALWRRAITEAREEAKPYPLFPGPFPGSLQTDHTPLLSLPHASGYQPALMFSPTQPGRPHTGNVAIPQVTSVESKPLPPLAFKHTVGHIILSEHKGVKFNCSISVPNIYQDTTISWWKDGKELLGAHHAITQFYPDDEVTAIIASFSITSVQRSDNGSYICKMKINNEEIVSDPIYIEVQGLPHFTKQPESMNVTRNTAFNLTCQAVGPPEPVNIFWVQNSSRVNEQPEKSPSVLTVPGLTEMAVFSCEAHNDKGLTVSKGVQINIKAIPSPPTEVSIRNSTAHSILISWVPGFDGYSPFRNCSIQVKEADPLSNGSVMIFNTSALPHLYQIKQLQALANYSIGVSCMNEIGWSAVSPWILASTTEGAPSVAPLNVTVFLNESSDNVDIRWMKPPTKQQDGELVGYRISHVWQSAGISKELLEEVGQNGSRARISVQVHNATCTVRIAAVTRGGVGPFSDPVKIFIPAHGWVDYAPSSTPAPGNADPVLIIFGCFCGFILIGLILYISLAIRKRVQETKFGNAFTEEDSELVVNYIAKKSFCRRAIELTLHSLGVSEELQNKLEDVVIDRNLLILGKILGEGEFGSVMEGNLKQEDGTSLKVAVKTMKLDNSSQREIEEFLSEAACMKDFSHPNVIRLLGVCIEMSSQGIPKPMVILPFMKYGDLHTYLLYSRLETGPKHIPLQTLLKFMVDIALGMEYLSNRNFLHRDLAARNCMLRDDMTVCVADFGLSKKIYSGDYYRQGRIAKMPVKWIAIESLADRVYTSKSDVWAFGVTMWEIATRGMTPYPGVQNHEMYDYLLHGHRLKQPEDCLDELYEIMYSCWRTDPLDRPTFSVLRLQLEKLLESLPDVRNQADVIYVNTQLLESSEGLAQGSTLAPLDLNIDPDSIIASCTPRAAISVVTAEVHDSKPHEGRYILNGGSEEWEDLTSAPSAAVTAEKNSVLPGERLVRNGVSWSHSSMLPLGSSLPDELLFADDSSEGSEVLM

COc1cccc(CNC(=O)c2nc3scc(COCc4ccc(C(=O)O)cc4)c3c(=O)[nH]2)c1 [T-26c]
inactive: [1] 54.8% | [2] 88.3% | [3] 92% | [4] 89.4% | [5] 95.5% | [6] 68.6% | [7] 72.3% | [8] 96.4% | [9] 63.1% | [10] 56.3% | [11] 97.5% | [12] 70% | [13] 74% | [14] 92.2% | [15] 94% | [16] 96.9% | [17] 100% | [18] 93.1% | [19] 100% | [20] 57.5% | [21] 81.2% | [22] 95.7% | [23] 89.2% | [24] 91.1% | [25] 100% | [26] 100% | [27] 76.7% | [28] 97.3% | [29] 100% | [30] 100% | [31] 100% | [32] 96.7% | [33] 81.3% | [34] 96.1% | [35] 75% | [36] 86.4% | [37] 91.4% | [38] 76% | [39] 100% | [40] 72.3% | [41] 100% | [42] 100% | [43] 50.1% | [44] 95.7% | [45] 76.2%
